Biological target: HSD17B13 (Homo sapiens (Human), UniProt Q7Z5P4)
Assay: LC/MS estrone detection assay for HSD17B13 activity (estradiol to estrone)
Assay type: biochemical
Details: estradiol substrate; for IC50: LC-MS/MS estrone detection; for Ki: LCMS, read-out: HSD17B13 Inhibition_Estradiol Substrate_LCMS: Ki
Procedure: The liquid chromatography/mass spectrometry (LC/MS) estrone detection assay monitors the conversion of estradiol to estrone by HSD17B13. This assay was undertaken in a 96 wp format (Eppendorf deep well Plate 96/500) in an 80 μl reaction volume containing: 4 μM of Estradiol (E2; Cayman; Ser. No. 10/006,315), 6 mM NAD+(Sigma; #N0623) and 30 nM HSD17B13 enzyme (in-house; E. coli expressed His-tagged, purified, soluble protein) in a reaction containing 1M potassium phosphate buffer pH 7.4, with 0.5% vehicle (DMSO). Reactions were incubated for 2 hours at 26.5° C., and estradiol (E2) conversion to estrone (E1) was quantitated by LC-MS/MS based analyte detection for both E2 and E1 using LCMS grade reagents.
Reactions were terminated by the addition of two volumes of acetonitrile (MeCN; LCMS grade; CAS #75/05/8) containing deuterated (D4)-E1 used as internal standard (Clear Synth; #CS-T-54273; 500 ng/mL final concentration). Samples were applied to pre-prepared Bond Elut-C18 extraction cartridges (3 mL; Agilent; Ser. No. 12/102,028), washed and eluted in MeCN. Eluates were dried under nitrogen and re-suspended in 60% methanol (LCMS grade methanol; CAS #67/56/1) before submission for analysis. Aqueous linearity for E2 and E1 were included for quantification.
Analysis of samples was undertaken on a XBridge BEH C18 column (Waters; #186003033) using 0.1% Diethyl Amine in MeCN (mobile phase A; DEA CAS #109-89-7) and 0.1% Diethyl Amine in milli-Q water (mobile phase B) in a 3 min gradient allowing 25% B. Analytes were detected in negative mode using MRM analysis, with E2 having a RT of 1.85 min and E1 having a RT of 2 min. Activity of the enzyme, in the absence of NAD+, was used to evaluate specificity of conversion. Enzyme activity in the presence of test samples was expressed as a percentage of the uninhibited enzyme activity, and plotted versus inhibitor concentration. Non-linear regression was performed using a four-parameter logistic model and GraphPad Prism software (GraphPad Software, La Jolla, CA). All assessments were undertaken in duplicate evaluations and pooled during extraction process and subsequently injected as duplicates for LC-MS/MS analysis.

HSD17B13, sequence (Q7Z5P4 20-300): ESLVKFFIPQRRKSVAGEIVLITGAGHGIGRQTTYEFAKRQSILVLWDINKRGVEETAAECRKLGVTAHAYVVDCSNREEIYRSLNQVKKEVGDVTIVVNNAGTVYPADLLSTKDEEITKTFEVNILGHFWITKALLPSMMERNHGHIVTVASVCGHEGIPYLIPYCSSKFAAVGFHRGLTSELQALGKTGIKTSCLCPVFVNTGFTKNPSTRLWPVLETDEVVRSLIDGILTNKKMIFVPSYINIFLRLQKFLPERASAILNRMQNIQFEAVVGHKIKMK

Compound	IC50 [nM]	Ki [nM]
Cc1nsc(NC(=O)c2cc(Cl)c(O)c(Cl)n2)c1C(=O)NCc1ccccc1OC(F)(F)F [Example 29, 5-(4,6-dichloro-5-hydroxypicolinamido)-3-methyl-N-(2-(trifluoromethoxy)benzyl)isothiazole-4-carboxamide]	100 to 500	
O=C(Nc1scnc1C(=O)NCC12CC3CC(CC(C3)C1)C2)c1cc(Cl)c(O)c(Cl)n1 [Example 30, N-(adamantan-1-ylmethyl)-5-(4,6-dichloro-5-hydroxypicolinamido)thiazole-4-carboxamide]	100 to 500	
O=C(Nc1scnc1C(=O)N1CCC2(CCCCC2)C1)c1cc(Cl)c(O)c(Cl)n1 [Example 31, N-(4-(2-azaspiro[4.5]decane-2-carbonyl)thiazol-5-yl)-4,6-dichloro-5-hydroxypicolinamide]	1000 to 10000	
O=C(Nc1scnc1C(=O)NC1(c2ccccc2)CCC1)c1cc(Cl)c(O)c(Cl)n1 [Example 32, 5-(4,6-dichloro-5-hydroxypicolinamido)-N-(1-phenylcyclobutyl)thiazole-4-carboxamide]	≤ 100	
O=C(Nc1scnc1C(=O)NCc1c(F)cccc1F)c1cc(Cl)c(O)c(Cl)n1 [Example 33, 5-(4,6-dichloro-5-hydroxypicolinamido)-N-(2,6-difluorobenzyl)thiazole-4-carboxamide]	100 to 500	
CC(C)(C)CCNC(=O)c1ncsc1NC(=O)c1cc(Cl)c(O)c(Cl)n1 [Example 35, 5-(4,6-dichloro-5-hydroxypicolinamido)-N-(3,3-dimethylbutyl)thiazole-4-carboxamide]	100 to 500	
O=C(Nc1scnc1C(=O)NCC1(F)CC1)c1cc(Cl)c(O)c(Cl)n1 [Example 36, 5-(4,6-dichloro-5-hydroxypicolinamido)-N-((1-fluorocyclopropyl)methyl)thiazole-4-carboxamide]	1000 to 10000	
O=C(Nc1scnc1C(=O)NC1CCC2(CC1)CNC2)c1cc(Cl)c(O)c(Cl)n1 [Example 37, 5-(4,6-dichloro-5-hydroxypicolinamido)-N-(2-azaspiro[3.5]nonan-7-yl)thiazole-4-carboxamide]	> 10000	
Cc1nsc(NC(=O)c2cc(Cl)c(O)c(Cl)n2)c1C(=O)NCc1ccccc1C(F)(F)F [Example 38, 5-(4,6-dichloro-5-hydroxypicolinamido)-3-methyl-N-(2-(trifluoromethyl)benzyl)isothiazole-4-carboxamide]	≤ 100	
CC(C)CCNC(=O)c1ncsc1NC(=O)c1cc(Cl)c(O)c(Cl)n1 [Example 39, 5-(4,6-dichloro-5-hydroxypicolinamido)-N-isopentylthiazole-4-carboxamide]	100 to 500	
O=C(Nc1scnc1C(=O)NC12C[C@H]3C[C@@H](C1)C[C@@H](C2)C3)c1cc(Cl)c(O)c(Cl)n1 [Example 40, N-((3s,5s,7s)-adamantan-1-yl)-5-(4,6-dichloro-5-hydroxypicolinamido)thiazole-4-carboxamide]	≤ 100	
O=C(Nc1scnc1C(=O)NCc1ccc2c(c1)OCO2)c1cc(Cl)c(O)c(Cl)n1 [Example 41, N-(benzo[d][1,3]dioxol-5-ylmethyl)-5-(4,6-dichloro-5-hydroxypicolinamido)thiazole-4-carboxamide]	100 to 500	
CS(=O)(=O)c1ccccc1CNC(=O)c1ncsc1NC(=O)c1cc(Cl)c(O)c(Cl)n1 [Example 42, 5-(4,6-dichloro-5-hydroxypicolinamido)-N-(2-(methylsulfonyl)benzyl)thiazole-4-carboxamide]	100 to 500	
O=C(Nc1scnc1C(=O)NC1CCOc2ccccc21)c1cc(Cl)c(O)c(Cl)n1 (stereo not drawn) [Example 43, N-(chroman-4-yl)-5-(4,6-dichloro-5-hydroxypicolinamido)thiazole-4-carboxamide]	100 to 500	
O=C(Nc1scnc1C(=O)N1CCC(C(F)(F)F)CC1)c1cc(Cl)c(O)c(Cl)n1 [Example 44, 4,6-dichloro-5-hydroxy-N-(4-(4-(trifluoromethyl)piperidine-1-carbonyl)thiazol-5-yl)picolinamide]	500 to 1000	
CC(C)(C)CCNC(=O)c1ncsc1NC(=O)c1cc(Cl)c(O)c(Cl)c1 [Example 46, 5-(3,5-dichloro-4-hydroxybenzamido)-N-(3,3-dimethylbutyl)thiazole-4-carboxamide]	100 to 500	
CC(C)n1cc(C(=O)NCc2ccccc2C(F)(F)F)c(NC(=O)c2cc(Cl)c(O)c(Cl)n2)n1 [Example 48, 4,6-dichloro-5-hydroxy-N-(1-isopropyl-4-((2-(trifluoromethyl)benzyl)carbamoyl)-1H-pyrazol-3-yl)picolinamide]	100 to 500	

Compound	IC50 [nM]	Ki [nM]
O=C(Nc1nn(CC(F)(F)F)cc1C(=O)NCc1ccccc1C(F)(F)F)c1cc(Cl)c(O)c(Cl)c1 [Example 49, 3-(3,5-dichloro-4-hydroxybenzamido)-1-(2,2,2-trifluoroethyl)-N-(2-(trifluoromethyl)benzyl)-1H-pyrazole-4-carboxamide]	100 to 500	
O=C(Nc1nn(CC(F)(F)F)cc1C(=O)NCc1ccccc1C(F)(F)F)c1cc(Cl)c(O)c(Cl)n1 [Example 50, 4,6-dichloro-5-hydroxy-N-(1-(2,2,2-trifluoroethyl)-4-((2-(trifluoromethyl)benzyl)carbamoyl)-1H-pyrazol-3-yl)picolinamide]	100 to 500	
O=C(Nc1sc(-c2cccnc2)nc1C(=O)NCc1ccccc1C(F)(F)F)c1cc(Cl)c(O)c(Cl)n1 [Example 51, 5-(4,6-dichloro-5-hydroxypicolinamido)-2-(pyridin-3-yl)-N-(2-(trifluoromethyl)benzyl)thiazole-4-carboxamide]	100 to 500	
O=C(Nc1cccnc1C(=O)NCc1ccccc1OC(F)(F)F)c1cc(Cl)c(O)c(Cl)n1 [Example 52, 4,6-dichloro-5-hydroxy-N-(2-((2-(trifluoromethoxy)benzyl)carbamoyl)pyridin-3-yl)picolinamide]	100 to 500	
Cn1cc(C(=O)NCCC(C)(C)C)c(NC(=O)c2cc(Cl)c(O)c(Cl)c2)n1 [Example 53, 3-(3,5-dichloro-4-hydroxybenzamido)-N-(3,3-dimethylbutyl)-1-methyl-1H-pyrazole-4-carboxamide]	500 to 1000	
O=C(Nc1nn(C2CC2)cc1C(=O)NCc1ccccc1C(F)(F)F)c1cc(Cl)c(O)c(Cl)n1 [Example 54, 4,6-dichloro-N-(1-cyclopropyl-4-((2-(trifluoromethyl)benzyl)carbamoyl)-1H-pyrazol-3-yl)-5-hydroxypicolinamide]	1000 to 10000	
O=C(Nc1nn(C(F)F)cc1C(=O)NCc1ccccc1C(F)(F)F)c1cc(Cl)c(O)c(Cl)c1 [Example 55, 3-(3,5-dichloro-4-hydroxybenzamido)-1-(difluoromethyl)-N-(2-(trifluoromethyl)benzyl)-1H-pyrazole-4-carboxamide]	100 to 500	
O=C(Nc1cccc2c1c(=O)n(Cc1ccccc1C(F)(F)F)c(=O)n2C1CC1)c1cc(Cl)c(O)c(Cl)n1 [Example 56, 4,6-dichloro-N-(1-cyclopropyl-2,4-dioxo-3-(2-(trifluoromethyl)benzyl)-1,2,3,4-tetrahydroquinazolin-5-yl)-5-hydroxypicolinamide]	500 to 1000	
O=C(Nc1ccc(-c2ccccc2)nc1C(=O)NCc1ccccc1OC(F)(F)F)c1cc(Cl)c(O)c(Cl)c1 [Example 57, 3-(3,5-dichloro-4-hydroxybenzamido)-6-phenyl-N-(2-(trifluoromethoxy)benzyl)picolin amide]	≤ 100	
O=C(Nc1ccc(-c2ccccc2)nc1C(=O)NCc1ccccc1OC(F)(F)F)c1cc(Cl)c(O)c(Cl)n1 [Example 58, 4,6-dichloro-5-hydroxy-N-(6-phenyl-2-((2-(trifluoromethoxy)benzyl)carbamoyl)pyridin-3-yl)picolinamide]	≤ 100	
O=C(Nc1sc(-c2cc[nH]n2)nc1C(=O)NCc1ccccc1C(F)(F)F)c1cc(Cl)c(O)c(Cl)n1 [Example 71]		≤ 50
O=C(Nc1sc(-c2ccccc2)nc1C(=O)NCC(F)(F)F)c1cc(Cl)c(O)c(Cl)n1 [Example 72]		100 to 500
O=C(Nc1sc(-c2ccc[nH]c2=O)nc1C(=O)NCc1ccccc1C(F)(F)F)c1cc(Cl)c(O)c(Cl)n1 [Example 74]		≤ 50
O=C(Nc1sc(-c2cncc(F)c2)nc1C(=O)NCc1ccccc1C(F)(F)F)c1cc(Cl)c(O)c(Cl)c1 [Example 75]		≤ 50
O=C(Nc1sc(-c2cncc(F)c2)nc1C(=O)NCc1ccccc1C(F)(F)F)c1cc(Cl)c(O)c(Cl)n1 [Example 76]		≤ 50
O=C(Nc1sc(-c2ccc[nH]c2=O)nc1C(=O)NCc1ccccc1C(F)(F)F)c1cc(Cl)c(O)c(Cl)c1 [Example 77]		≤ 50

Source: patent US20250100993A1, “2-SUBSTITUTED THIAZOLE HSD17B13 INHIBITORS AND USES THEREOF” (Inipharm, Inc., priority 2022, published 2025)
